Here are results for one compound from patent US8246981B2, “Transdermal method and patch for emesis” (Abeille Pharamaceuticals, Inc., priority 2005, dated 2012).

The conditions of the data set: IV bolus, once-daily 2 mg/day.

Description: A randomized crossover clinical study was conducted in 11 individuals who received either a transdermal patch or an IV solution of granisetron. […] This was followed by a 10 day wash-out period, after which the same individuals received granisetron IV in once-daily dosages of 2 mg/day Individuals who received the IV treatment in the first period received a transdermal patch in the cross over treatment. Blood plasma levels of granisetron for all of the individuals in the test were measured periodically during the 96 hour time that the patches were being worn and the IV dosages were being administered, and for an additional 2 days after the patches were removed and the IV administration discontinued.

With `CN1C2CCCC1CC(NC(=O)c1nn(C)c3ccccc13)C2` (stereo not shown) [IV granisetron, granisetron], the “blood plasma level profile” value is recorded as “sharp spikes in blood plasma levels”.
